Values quoted from earlier work in publication PMC7461116, “Synthesis, Anticonvulsant and Antinociceptive Activity of New Hybrid Compounds: Derivatives of 3-(3-Methylthiophen-2-yl)-pyrrolidine-2,5-dione” (International Journal of Molecular Sciences, 2020).

Legend:
Details in all cases: cited from earlier work
[1] = tested on: maximal electroshock seizures
[2] = tested on: PTZ-induced clonic seizures; parameters: method as in PMID 25933955
[3] = tested on: latency time to pain reaction; parameters: method as in PMID 25933955
[4] = tested on: motor impairment on rotarod

## Cc1ccsc1C(=CCCN1CCC[C@@H](C(=O)O)C1)c1sccc1C [tiagabine]
[1]
  MES: protection in words: did not show protection
[2]
  scPTZ: activity in words: active
[3]
  Hot plate: dose at which analgesic activity was observed: 8 mg/kg
[4]
  Rotarod: motor impairment in words: significant motor impairment
